Assay results as given in patent US6599522B2, “Triglyceride reducing agent” (priority 2000, dated 2003).
“And” between values parts separate entries of the source, which are not always exact repeats. Equal entries are not always repeated. Where two headings read alike, the source gives them in different places. Marks after values point to notes of the source that are not given here.

Legend:
rats [1] = details: cited from earlier work
guinea pigs = details: guinea pig, in vivo; cited from earlier work
rats [2] = details: cited from earlier work; remark: listed apart in the source
[3] = man; cited from earlier work
rabbits = details: rabbit, in vivo; cited from earlier work
hyperlipidemic patients = assay: Clinical study: effect of the hypolipidemic agent on elevated triglyceride levels in blood; format: in vivo, human
Protocol: Effect (in vivo) of the Hypolipidemic Agent on Elevated Triglyceride Levels in Blood-Clinical Study Patients attending the Endocrinology and Metabolism outpatient department of […] Medical College Hospital were included in the study. Patients with baseline serum total cholesterol above 200 mg/dl and/or serum triglycerides above 200 mg/dl after 6-12 weeks of low fat diet, exercise and weight reduction program, were included in the study. The compliance of the subjects for diet, weight and exercise schedules were monitored throughout the study. The number of patients recruited for the study were 37, including a child. There were […] in the age group of 30 to 62 years. Of the 37 patients, 23 patients were diabetic (type two diabetes) and 16 patients had essential hypertension, and two women and nine men were obese, the others being of normal weight. Two men and one person dropped out of the study, due to unknown causes. Of the original patients, 34 completed the study as per the protocol. In the initial visit, patient's height in centimeters, and weight in kilograms were recorded. After noting detailed history, physical examinations were performed on each patient. Informed consent was taken from all patients and, in the case of minors, from their parents. Blood samples were drawn for routine hematology, fasting and post prandial plasma glucose, blood urea, serum creatinine, liver function test and lipid profile. At each visit, the patient's weight and diet and exercise compliance was checked and blood samples for hematology and lipid profile were drawn. The patients were given 20 mg of Vanillin in gelatin capsule once a day before the main meal. At each visit, pill count was done to check the compliance of the drug intake. The data were recorded in the case record form and computer by authorized persons. The data were analyzed statistically.

hyperlipidemic rats = assay: Dose response spectrum of the hypolipidemic agent, animal assay on hyperlipidemic diet; format: in vivo, Wistar male rats; design: Serum triglycerides, TOTAL / Serum triglycerides, LDL-VLDL / Serum triglycerides, HDL: unit not given here; details: six weeks; for Hypocholesterolemic effect, lowering: mainly LDL-VLDL fraction
From the text: Dose Response Spectrum of the Hypolipidemic Agent—Animal Assay: The response in terms of the lowering of triglyceride component in the majority of the human cases were encouraging. This initiated a dose response test in young adult rats to determine a standard response curve. Such a curve would help in choosing the proper doses for further clinical trials and determine the adequacy and nature of the response. The tests were done on groups of young Wistar male rats, statistically distributed on the basis of body weight (125±5 g) into six groups, including a control group. […] The basal hyperlipidemic diet contained (g/100): casein 15, corn starch 40, cane sugar 10, hydrogenated fat 25, refined peanut oil 5, NRC vitamin mixture (choline free) 1, and salt mixture (Bernhardt-Tomarrelli modified) 4. Fat soluble vitamins at desired concentrations were added to the peanut oil. Vanillin was incorporated into the hyperlipidemic diet in replacement of starch at the desired levels. The duration of the test feeding period was six weeks. At the end of the experimental period, the rats were sacrificed and lipid analysis was done using standard procedures.

[4] = 20 mg/day oral, throughout the study
[5] = mean of 10 patients, baseline mean 425.2, p < 0.0005 vs TG1, 20 mg/day

## COc1cc(CNC(=O)CCCC/C=C/C(C)C)ccc1O [capsaicin, reference compound]
Rats [1]; 0.3 mg % capsaicin
  Reduction in serum triglycerides: 13%

## COc1cc(C=O)ccc1O [Vanillin, 4-hydroxy-3-methoxybenzaldehyde]
Guinea pigs
  Acute oral LD50: 1400 mg/kg
Rats [2]; 1.0% of diet 16 weeks, 0.1% 27 to 28 weeks, 2.0% and 5.0% one year, 0.5%, 1.0% and 2.0% two years
  Body and organ weights, hematology, and histopathology, test versus control rats: no significant differences
Rats [2]; rats, 5% diet for 90 days (earlier study)
  Adverse effects: growth depression and organ enlargement
Rats [2]; rats, 5% in diet
  Daily intake equal to the highest level without adverse effect: ~2500 mg/kg
Rats [2]; rats, level in diet
  Highest level consumed without adverse effect: 5%
Rats [2]; rats, oral, once a day 20 mg/kg/d for 126 days
  Adverse effects: no adverse effects
Rats [2]; rats, oral, twice per week 300 mg/kg/dose for 14 weeks
  Adverse effects: no adverse effects
Rats [2]; versus a 60-kg person
  Highest no-adverse-effect intake relative to estimated per capita daily intake: ~14,000 times
[3]
  Metabolism and excretion: converted to vanillic acid in the liver and is excreted in the urine
rabbits
  Acute oral LD50: 3000 mg/kg
Hyperlipidemic patients; 20 mg/day
  Change in serum HDL level: no significant change
Hyperlipidemic patients; [4]
  Adverse effects in patients: No adverse effects
  Routine biochemistry, hematology and liver function tests: did not show any significant change
Hyperlipidemic patients; individual patient, before treatment minus 6 weeks after treatment, 20 mg/day
  DELTA = (TG1 − TG3): 243 mg/dL and 199 mg/dL and 218 mg/dL and 120 mg/dL and 168 mg/dL and 236 mg/dL and 133 mg/dL and 250 mg/dL and 158 mg/dL and 224 mg/dL
Hyperlipidemic patients; individual patient, reduction of serum triglyceride at 6 weeks, 20 mg/day
  (DELTA/TG1) ×100: 41.68% and 52.15% and 53.96% and 42.25% and 30.65% and 49.58% and 43.18% and 58.14% and 47.02% and 44.44%
Hyperlipidemic patients; mean of 10 patients, 20 mg/day
  DELTA = (TG1 − TG3), mean: 194.9 mg/dL
Hyperlipidemic patients; mean of 10 patients, 6 weeks, 20 mg/day
  (DELTA/TG1) ×100, mean: 46.34%
Hyperlipidemic patients; [5]
  TG2: fasting serum triglyceride level 3 weeks after treatment, mean: 306.0** mg/dl
  TG3: fasting serum triglyceride level 6 weeks after treatment, mean: 230.3 mg/dL
Hyperlipidemic patients; mean, 20 mg/day
  Change from baseline total cholesterol, mean: 74.5 mg/dL
Hyperlipidemic patients; patient, about six weeks, 20 mg/day
  Reduction of serum triglyceride: up to 75%
Hyperlipidemic patients; patient, initial value 3078 mg/dl, about six weeks, 20 mg/day
  Serum triglyceride after treatment: 786 mg/dL
Rats [1]; 0.15 mg % vanillin
  Reduction in serum triglycerides: 24%
Hyperlipidemic rats; 0.125% and 0.25% in diet
  Liver total lipids: significantly higher
  Triglycerides in the liver: higher accumulation
Hyperlipidemic rats; 0.125% in diet
  Decrease in HDL cholesterol: 16%
  Hypocholesterolemic effect, lowering: 18%
Hyperlipidemic rats; 0.125% in hyperlipidemic diet
  Serum triglycerides, HDL: 69.3 ± 7.0
  Serum triglycerides, LDL-VLDL: 128.3 ± 4.1
  Serum triglycerides, TOTAL: 197.6 ± 9.74
Hyperlipidemic rats; 0.25% in diet
  Hypocholesterolemic effect, lowering: 12%
Hyperlipidemic rats; 0.25% in hyperlipidemic diet
  Serum triglycerides, HDL: 74.3 ± 10.4
  Serum triglycerides, LDL-VLDL: 147.1 ± 6.5
  Serum triglycerides, TOTAL: 221.4 ± 16.5
Hyperlipidemic rats; 0.5% in diet
  Decrease in serum phospholipids: 19%
Hyperlipidemic rats; 0.5% in hyperlipidemic diet
  Serum triglycerides, HDL: 29.8 ± 6.5
  Serum triglycerides, LDL-VLDL: 127.0 ± 4.3
  Serum triglycerides, TOTAL: 156.8 ± 10.4
Hyperlipidemic rats; 1% and 5% levels in diet
  Adipose fat: lowered
Hyperlipidemic rats; 1.0% in diet
  Decrease in serum phospholipids: 14%
Hyperlipidemic rats; 1.0% in hyperlipidemic diet
  Serum triglycerides, HDL: 41.7 ± 5.5
  Serum triglycerides, LDL-VLDL: 104.8 ± 4.9
  Serum triglycerides, TOTAL: 146.5 ± 9.33
Hyperlipidemic rats; 5.0% in hyperlipidemic diet
  Serum triglycerides, HDL: 38.6 ± 4.8
  Serum triglycerides, LDL-VLDL: 141.8 ± 10.3
  Serum triglycerides, TOTAL: 180.4 ± 3.69
Hyperlipidemic rats; any of the levels tested (0.125-5% in diet)
  Liver weights: not affected
